Measurements published in patent publication US20220370381A1 (priority 2016, published 2022).
Numbering of substitutions follows the chain as printed. Where two headings read alike, the source gives them in different places.

Key:
serotonin 5-HT1A = biological target: T1, serotonin 5-HT1A (Rattus norvegicus, UniProt P19327); test: Competitive radioligand binding assay, serotonin 5-HT1A
T1 construct: serotonin 5-HT1A (rat cerebral cortex); from tissue; host or cells: rat cerebral cortex
T1 sequence (P19327 1-422): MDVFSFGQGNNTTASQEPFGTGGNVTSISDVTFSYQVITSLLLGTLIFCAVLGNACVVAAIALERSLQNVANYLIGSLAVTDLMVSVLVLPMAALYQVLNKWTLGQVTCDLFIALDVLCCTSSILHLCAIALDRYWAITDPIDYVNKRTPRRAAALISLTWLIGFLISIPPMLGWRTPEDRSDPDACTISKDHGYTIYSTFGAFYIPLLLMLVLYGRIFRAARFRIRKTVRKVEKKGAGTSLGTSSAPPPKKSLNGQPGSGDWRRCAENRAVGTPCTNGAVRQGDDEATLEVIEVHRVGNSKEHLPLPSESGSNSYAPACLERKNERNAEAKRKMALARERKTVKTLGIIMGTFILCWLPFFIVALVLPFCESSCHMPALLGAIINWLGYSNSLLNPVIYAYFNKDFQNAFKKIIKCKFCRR

Sigma 1 [1] = biological target: T2, Sigma 1 (Cavia porcellus, UniProt Q60492); test: Sigma-1 receptor tissue bioassay, guinea pig vas deferens, agonist activity (twitch contraction); design: Segments of guinea pig vas deferens were suspended in 20-ml organ baths; from tissue; host or cells: guinea pig vas deferens; conditions: field-stimulated guinea pig vas deferens, compound alone
T2 sequence (Q60492 whole entry): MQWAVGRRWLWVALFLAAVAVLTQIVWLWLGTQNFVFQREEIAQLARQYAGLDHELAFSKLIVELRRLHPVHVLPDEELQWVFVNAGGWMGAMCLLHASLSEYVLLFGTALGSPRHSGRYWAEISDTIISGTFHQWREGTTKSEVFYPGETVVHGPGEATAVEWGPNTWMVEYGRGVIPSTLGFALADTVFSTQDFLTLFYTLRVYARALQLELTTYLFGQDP

[2] = biological target: Serotonin 5-HT2B (Human recombinant) (Homo sapiens, UniProt P41595); test: Competitive radioligand binding assay, serotonin 5-HT2B
Chain of Serotonin 5-HT2B (Human recombinant) (P41595 whole entry): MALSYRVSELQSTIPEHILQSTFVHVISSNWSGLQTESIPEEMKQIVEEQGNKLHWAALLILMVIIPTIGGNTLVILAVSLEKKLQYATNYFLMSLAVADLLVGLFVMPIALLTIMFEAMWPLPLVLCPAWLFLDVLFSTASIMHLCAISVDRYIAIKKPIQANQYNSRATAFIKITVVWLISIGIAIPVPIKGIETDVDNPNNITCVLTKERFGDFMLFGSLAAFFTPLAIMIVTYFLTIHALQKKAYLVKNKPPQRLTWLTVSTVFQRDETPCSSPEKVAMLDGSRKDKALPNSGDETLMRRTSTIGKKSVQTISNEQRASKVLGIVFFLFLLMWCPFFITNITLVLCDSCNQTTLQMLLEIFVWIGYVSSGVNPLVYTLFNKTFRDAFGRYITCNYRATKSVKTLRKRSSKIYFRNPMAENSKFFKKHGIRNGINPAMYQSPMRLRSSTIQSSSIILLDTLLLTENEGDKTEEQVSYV

[3] = biological target: T3, Human muscarinic M1 receptor (Homo sapiens, UniProt P11229); assay type: cell-based; conditions: acetylcholine-induced Ca2+ mobilization, CHO cells
T3 construct: expressed in transfected cells; host or cells: CHO
T3 sequence (P11229 1-460): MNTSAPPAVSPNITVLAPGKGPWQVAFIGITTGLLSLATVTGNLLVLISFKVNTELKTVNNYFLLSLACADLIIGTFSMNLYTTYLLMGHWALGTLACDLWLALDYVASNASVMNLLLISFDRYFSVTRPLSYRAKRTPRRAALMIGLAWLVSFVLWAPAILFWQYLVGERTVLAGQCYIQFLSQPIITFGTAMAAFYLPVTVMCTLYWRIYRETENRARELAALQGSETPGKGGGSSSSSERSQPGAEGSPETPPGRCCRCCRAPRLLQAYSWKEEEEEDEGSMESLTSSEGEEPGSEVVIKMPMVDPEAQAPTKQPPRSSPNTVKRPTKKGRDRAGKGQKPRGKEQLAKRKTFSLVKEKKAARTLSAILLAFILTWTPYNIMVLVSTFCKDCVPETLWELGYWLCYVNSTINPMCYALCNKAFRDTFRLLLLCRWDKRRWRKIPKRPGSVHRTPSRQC
Experimental: After plating, a fluorescent probe (Fluo4 NW, Invitrogen), mixed with probenicid in HBSS buffer (Invitrogen) complemented with 20 mM Hepes (Invitrogen) (pH 7.4), was added into each well and equilibrated with the cells for 60 min at 37° C., followed by a second incubation for 15 min at 22° C.
Thereafter, the assay plates were positioned in a microplate reader (CellLux, PerkinElmer). After a 5-min incubation, 3 nM acetylcholine was added to all except the basal control wells to a total reaction volume of 100 uL, and changes in fluorescence intensity which vary proportionally to the free cytosolic Ca2+ ion concentration, were measured.
The stock solutions were then diluted to [10×] in HBSS and 0.1% BSA just prior to use. Maximum tolerable DMSO concentration was 0.3%.

[4] = biological target: T4, human β-2 adrenergic receptor (Homo sapiens, UniProt P07550); test: β-2 adrenergic receptor antagonist assay, agonist-induced cAMP production (HTRF); assay type: cell-based; design: expressed in transfected cells; host or cells: HEK-293; conditions: inhibition of isoproterenol-induced cAMP production
T4 sequence (P07550 whole entry): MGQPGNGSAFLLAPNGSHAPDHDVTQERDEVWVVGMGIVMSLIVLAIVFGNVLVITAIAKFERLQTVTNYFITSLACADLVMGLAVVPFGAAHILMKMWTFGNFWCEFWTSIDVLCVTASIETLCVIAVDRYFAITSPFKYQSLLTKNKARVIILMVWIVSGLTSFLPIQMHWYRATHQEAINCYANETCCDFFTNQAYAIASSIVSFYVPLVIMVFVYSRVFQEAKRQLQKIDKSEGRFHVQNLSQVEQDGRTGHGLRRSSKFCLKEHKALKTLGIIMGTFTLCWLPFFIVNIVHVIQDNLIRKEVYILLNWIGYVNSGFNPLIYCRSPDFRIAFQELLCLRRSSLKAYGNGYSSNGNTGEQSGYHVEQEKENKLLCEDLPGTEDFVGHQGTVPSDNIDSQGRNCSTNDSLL
Experimental: Transfected HEK-293 cells expressing human β-1 adrenergic receptor, human β-2 adrenergic receptor, and human β3 adrenergic receptor, respectively, were prepared using cloned human cDNA. See H FRIELLE, T., COLLINS, S., DANIEL, K. W., CARON, M. G., LEFKOWITZ, R. J., KOBILKA, B. K. (1987), Cloning of the cDNA for the human beta1-adrenergic receptor, Proc. Natl. Acad. Sci. U.S.A., 84,7920, and BAKER, J. G. (2005) The selectivity of Beta-adrenoreceptor antagonists at the human Beta1, Beta2 and Beta3 adrenoreceptor, Brit.
Transfected cells were suspended in HBSS buffer (Invitrogen) complemented with 20 mM HEPES (pH 7.4) and 500 μM IBMX. […] The cells were then distributed in 96 well microplates (see FIG. 15 for plating densities).
After plating, the cells were induced by adding reference agonist. See FIG. 15 for reference agonists and concentrations used for each assay. […] The cells were then incubated 30 minutes at room temperature.
Subsequently, the cells were lysed and a fluorescence acceptor (D2-labeled cAMP) and a fluorescence donor (anti-cAMP antibody labeled with europium cryptate) were added to the wells.
Standard reference antagonists were tested in each experiment at several concentrations to generate a concentration-response curve from which its IC50 value is calculated.
EC50 values (concentration producing a half-maximal response) and IC50 values (concentration causing a half-maximal inhibition of the control agonist response) were determined by non-linear regression analysis of the concentration-response curves generated with mean replicate values using Hill equation curve fitting: […]
For the antagonists, the apparent dissociation constants (KB) were calculated using the modified Cheng Prusoff equation:
KB=IC50/[1+(A/EC50A)], where

Swiss OF-1 mice [5] = conditions: female BKTO mice, O'Neill & Conway (2001); cited from earlier work
rats = conditions: cited from earlier work
Swiss OF-1 mice [6] = test: Forced swim test (FST) in mice; conditions: acute IP injection, lower doses not active
[7] = biological target: Serotonin 5-HT7 (Human recombinant) (Homo sapiens, UniProt P34969); test: Competitive radioligand binding assay, serotonin 5-HT7
Chain of Serotonin 5-HT7 (Human recombinant) (P34969 whole entry): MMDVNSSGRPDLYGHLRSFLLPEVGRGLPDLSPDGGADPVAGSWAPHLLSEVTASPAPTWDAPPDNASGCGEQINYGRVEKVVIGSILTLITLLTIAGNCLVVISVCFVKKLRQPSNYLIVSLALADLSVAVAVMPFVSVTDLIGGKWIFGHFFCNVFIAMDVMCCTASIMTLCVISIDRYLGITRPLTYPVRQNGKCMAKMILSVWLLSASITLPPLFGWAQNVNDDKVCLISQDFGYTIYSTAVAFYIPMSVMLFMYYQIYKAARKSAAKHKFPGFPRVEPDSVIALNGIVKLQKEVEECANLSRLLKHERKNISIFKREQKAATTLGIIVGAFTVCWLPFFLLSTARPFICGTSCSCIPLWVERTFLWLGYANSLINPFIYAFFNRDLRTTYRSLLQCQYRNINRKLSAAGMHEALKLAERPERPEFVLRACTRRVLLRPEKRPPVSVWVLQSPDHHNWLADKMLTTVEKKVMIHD

Sigma 1 [8] = biological target: T2, Sigma 1; test: Competitive radioligand binding assay, Sigma 1; design: species or system Guinea pig
hNav1.5 = hNav1.5 (Homo sapiens, UniProt Q14524); test: Ion channel profiling, IonFlux HT automated patch clamp, hNav1.5
Chain of hNav1.5 (Q14524 whole entry): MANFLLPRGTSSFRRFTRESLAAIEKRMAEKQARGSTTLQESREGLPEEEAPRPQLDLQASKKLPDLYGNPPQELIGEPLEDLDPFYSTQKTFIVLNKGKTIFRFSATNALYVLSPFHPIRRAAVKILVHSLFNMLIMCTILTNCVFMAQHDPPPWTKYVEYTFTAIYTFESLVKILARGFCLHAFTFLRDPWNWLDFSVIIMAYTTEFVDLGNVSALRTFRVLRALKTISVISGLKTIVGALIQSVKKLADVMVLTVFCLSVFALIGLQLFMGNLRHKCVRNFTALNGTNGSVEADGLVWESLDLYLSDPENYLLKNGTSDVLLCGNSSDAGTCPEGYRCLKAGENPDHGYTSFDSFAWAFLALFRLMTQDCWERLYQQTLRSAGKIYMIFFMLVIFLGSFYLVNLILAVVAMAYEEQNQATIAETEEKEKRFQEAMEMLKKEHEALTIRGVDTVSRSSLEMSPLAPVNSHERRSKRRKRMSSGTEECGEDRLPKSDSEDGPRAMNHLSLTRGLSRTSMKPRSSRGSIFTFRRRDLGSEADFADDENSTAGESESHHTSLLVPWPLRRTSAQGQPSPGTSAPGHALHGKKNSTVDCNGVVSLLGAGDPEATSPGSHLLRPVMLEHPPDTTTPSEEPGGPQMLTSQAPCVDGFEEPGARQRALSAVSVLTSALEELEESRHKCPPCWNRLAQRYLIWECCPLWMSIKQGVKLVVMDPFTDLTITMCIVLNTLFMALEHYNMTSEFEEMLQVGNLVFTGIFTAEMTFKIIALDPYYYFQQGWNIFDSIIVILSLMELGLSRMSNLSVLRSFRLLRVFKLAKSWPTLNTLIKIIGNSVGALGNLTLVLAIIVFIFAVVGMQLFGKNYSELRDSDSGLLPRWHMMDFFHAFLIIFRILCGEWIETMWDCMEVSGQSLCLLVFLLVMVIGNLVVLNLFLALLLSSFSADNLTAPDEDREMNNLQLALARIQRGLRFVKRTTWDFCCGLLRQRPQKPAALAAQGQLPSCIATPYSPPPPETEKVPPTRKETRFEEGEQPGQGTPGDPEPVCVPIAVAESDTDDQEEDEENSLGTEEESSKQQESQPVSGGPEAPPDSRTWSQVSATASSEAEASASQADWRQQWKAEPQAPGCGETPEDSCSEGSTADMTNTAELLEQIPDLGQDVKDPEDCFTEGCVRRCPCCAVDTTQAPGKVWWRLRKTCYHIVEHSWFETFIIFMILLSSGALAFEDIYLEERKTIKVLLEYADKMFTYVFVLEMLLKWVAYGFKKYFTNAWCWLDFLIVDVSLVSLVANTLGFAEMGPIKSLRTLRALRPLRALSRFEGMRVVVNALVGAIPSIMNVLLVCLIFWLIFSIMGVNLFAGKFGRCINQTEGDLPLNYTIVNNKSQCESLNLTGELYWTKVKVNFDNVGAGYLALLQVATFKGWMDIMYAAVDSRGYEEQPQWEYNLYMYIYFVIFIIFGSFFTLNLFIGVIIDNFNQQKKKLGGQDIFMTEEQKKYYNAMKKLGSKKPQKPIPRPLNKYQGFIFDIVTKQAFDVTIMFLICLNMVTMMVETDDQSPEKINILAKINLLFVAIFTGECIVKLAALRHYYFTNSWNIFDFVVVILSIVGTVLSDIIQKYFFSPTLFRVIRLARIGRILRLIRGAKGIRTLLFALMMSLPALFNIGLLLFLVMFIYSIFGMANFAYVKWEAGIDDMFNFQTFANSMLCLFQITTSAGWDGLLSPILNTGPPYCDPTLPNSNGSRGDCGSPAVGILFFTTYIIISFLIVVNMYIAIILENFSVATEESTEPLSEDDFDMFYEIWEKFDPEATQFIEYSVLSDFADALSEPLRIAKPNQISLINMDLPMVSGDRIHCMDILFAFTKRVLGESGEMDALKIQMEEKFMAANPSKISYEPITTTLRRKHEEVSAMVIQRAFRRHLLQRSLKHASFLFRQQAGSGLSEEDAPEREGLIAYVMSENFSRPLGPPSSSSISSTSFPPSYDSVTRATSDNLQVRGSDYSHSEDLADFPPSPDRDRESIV

Swiss OF-1 mice [9] = test: Step-through passive avoidance, dizocilpine-induced deficit; assay type: in vivo, mouse; conditions: IP; 0.1 mg/kg not active
Swiss OF-1 mice [10] = test: Spontaneous alternation in the Y-maze, dizocilpine-induced deficit; assay type: in vivo, mouse; conditions: IP; 0.1 mg/kg not active
DBA/1 mice = conditions: comparator value, no test described; cited from earlier work
[11] = biological target: T4, human β-2 adrenergic receptor; test: Competitive radioligand binding assay, β2-adrenergic
Muscarinic M1 = biological target: T5, Muscarinic M1 (Rattus norvegicus, UniProt P08482); test: Competitive radioligand binding assay, muscarinic M1
T5 construct: Muscarinic M1 (Rat cerebral cortex); from tissue; host or cells: rat cerebral cortex
T5 sequence (P08482 1-460): T3 sequence (P11229 1-460) with A5V, T254S, P309S, R320K, A337G, I413V

Sigma 1 [12] = biological target: T2, Sigma 1; test: Sigma-1 receptor tissue bioassay, guinea pig vas deferens, antagonist activity ((+)SKF-10047-induced response); design: Segments of guinea pig vas deferens were suspended in 20-ml organ baths; from tissue; host or cells: guinea pig vas deferens; conditions: field-stimulated guinea pig vas deferens, (+)SKF-10047 100 μM
[13] = system: T6, β-Adrenergic (Non-selective); test: Competitive radioligand binding assay, β-adrenergic (non-selective); design: species or system Rat
T6 construct: β-1 adrenergic; other: test article 1×10^−6 and 1×10^−5 mol/L; rat brain

Sigma non-selective = test: Competitive radioligand binding assay, sigma non-selective; design: species or system Guinea pig
Na channel = system: T7, Na channel; test: Competitive radioligand binding assay, Na channel; design: species or system Rat
T7 construct: other: test article 1×10^−6 and 1×10^−5 mol/L; rat brain

[14] = Example 3, Ki=IC50/(1+L/Kd), IC50 expressed in mol/L, read-out: Ki, 5-HT1A
[15] = Example 2, seven concentrations
[16] = test article 1×10^−6 and 1×10^−5 mol/L, rat cerebral cortex
[17] = test article 1×10^−6 and 1×10^−5 mol/L, rat brain

CC(N)Cc1cccc(C(F)(F)F)c1 (single isomer, unassigned; (+)) [(+)norfenfluramine]
Ki (serotonin 5-HT1A; [14]): 1140 nM
effect on twitch contraction amplitude (Sigma 1 [1]): concentration-dependent decrease
Ki [2]: 242 nM

CC(N)Cc1cccc(C(F)(F)F)c1 (single isomer, unassigned; (-)) [(−)norfenfluramine]
Ki (serotonin 5-HT1A; [14]): 409 nM
effect on twitch contraction amplitude (Sigma 1 [1]): more complex behavior
antagonist activity at the muscarinic M1 receptor [3]: some antagonist activity
antagonist activity at the beta-2 adrenergic receptor [4]: antagonist activity
Ki [2]: 1200 nM

CCN[C@@H](C)Cc1cccc(C(F)(F)F)c1 [(+)fenfluramine]
antagonist activity at the beta-2 adrenergic receptor [4]: antagonist activity

Br.CCCN(CCC)C1CCc2cccc(O)c2C1 (centres unmarked) [Compound 8-OH-DPAT, 7-(Dipropylamino)-5,6,7,8-tetrahydronaphthalen-1-ol hydrobromide]
active dose in forced swim test published previously (Swiss OF-1 mice [5]): 0.25 to 1 mg/kg
active dose in forced swim test published previously (rats; male CD-COBS rats, Cervo & Samanin (1987)): 0.25 to 0.5 mg/kg
active dose in forced swim test published previously (rats; male Sprague-Dawley rats, Singh & Lucki (1993)): 0.5 mg/kg
dose reducing immobility duration in the FST (Swiss OF-1 mice [6]): 3 mg/kg

CCN[C@@H](C)Cc1cccc(C(F)(F)F)c1 [Dexfenfluramine]
IC50 (serotonin 5-HT1A): 1290 nM
Ki (serotonin 5-HT1A): 711 nM
IC50 [7]: 7520 nM
Ki [7]: 7100 nM
IC50 (Sigma 1 [8]): 125 nM
Ki (Sigma 1 [8]): 109 nM
IC50 (hNav1.5): > 30000 nM

CC[C@@](C/C=C/c1ccccc1)(c1ccccc1)N(C)CC1CC1.Cl [Igmesine, (R)-(+)-N-Cyclopropylmethyl-α-ethyl-N-methyl-α-[(2E)-3-phenyl-2-propenyl)benzenemethanamine hydrochloride]
dose reducing immobility duration in the FST (Swiss OF-1 mice [6]): 30 mg/kg

Cl.O=C(OCCN1CCOCC1)C1(c2ccccc2)CCCCC1 [PRE-084, 2-(4-Morpholinethyl)-1-phenylcyclohexanecarboxylate hydrochloride]
dose attenuating dizocilpine-induced deficit in passive avoidance response (minimal active dose) (Swiss OF-1 mice [9]): 0.3 mg/kg
dose attenuating dizocilpine-induced deficit in spontaneous alternation (Swiss OF-1 mice [10]): 0.3 mg/kg

CNCCC(Oc1ccc(C(F)(F)F)cc1)c1ccccc1 (centres unmarked) [fluoxetine]
ED50, blockade of S-IRA (comparison value) (DBA/1 mice): 22.2 mg/kg

CC(N)Cc1cccc(C(F)(F)F)c1 (centres unmarked) [norfenfluramine]
binding relative to positive controls [11, 15]: moderate binding
inhibition of receptor binding (tracer) ([11]; test article 1×10^−6 and 1×10^−5 mol/L, human recombinant): significantly inhibit
binding relative to positive controls (Muscarinic M1; [15]): moderate binding
inhibition of receptor binding (tracer) (Muscarinic M1; [16]): significantly inhibit
binding relative to positive controls (serotonin 5-HT1A; [15]): moderate binding
inhibition of receptor binding (tracer) (serotonin 5-HT1A; [16]): significantly inhibit
effect on twitch contraction amplitude (Sigma 1 [1]; listed as Racemic norfenfluramine): concentration-dependent decrease
effect on the (+)SKF-10,047-induced increase in twitch contraction amplitude (Sigma 1 [12]): concentration-dependent inhibition
binding relative to positive controls ([13]; Example 2, seven concentrations, β-1 adrenergic): moderate binding
inhibition of receptor binding (tracer) [13, 17]: significantly inhibit
antagonist activity at the beta-2 adrenergic receptor [4]: some antagonist activity
binding relative to positive controls (Sigma non-selective; [15]): moderate binding
inhibition of receptor binding (tracer) (Sigma non-selective; test article 1×10^−6 and 1×10^−5 mol/L, guinea pig brain): significantly inhibit
binding relative to positive controls (Na channel; [15]): moderate binding
inhibition of receptor binding (tracer) (Na channel; [17]): significantly inhibit
activity at the Nav1.5 ion channel (hNav1.5; patch clamp, 0.37-30 μM): weak antagonist

C[C@@H]1CN(CCCn2c3ccccc3c3ccccc32)C[C@H](C)N1 [rimcazole]
effect on the (+)SKF-10,047-induced increase in twitch contraction amplitude (Sigma 1 [12]): inhibited
